{"source": "patent US20240102068A1", "about": "“C-GLYCOSYLTRANSFERASE VARIANTS AND USE THEREOF” (KOREA ADVANCED INSTITUTE OF SCIENCE AND TECHNOLOGY, priority 2021, published 2024)", "target": "T1, Gentiana triflora GtCGT (GtUF6CGT1) variant V93Q/Y193F, SEQ ID NO: 61 (Gentiana triflora, UniProt A0A0B6VIJ5, V93Q/Y193F)", "T1 sequence (A0A0B6VIJ5 1-477 V93Q/Y193F)": "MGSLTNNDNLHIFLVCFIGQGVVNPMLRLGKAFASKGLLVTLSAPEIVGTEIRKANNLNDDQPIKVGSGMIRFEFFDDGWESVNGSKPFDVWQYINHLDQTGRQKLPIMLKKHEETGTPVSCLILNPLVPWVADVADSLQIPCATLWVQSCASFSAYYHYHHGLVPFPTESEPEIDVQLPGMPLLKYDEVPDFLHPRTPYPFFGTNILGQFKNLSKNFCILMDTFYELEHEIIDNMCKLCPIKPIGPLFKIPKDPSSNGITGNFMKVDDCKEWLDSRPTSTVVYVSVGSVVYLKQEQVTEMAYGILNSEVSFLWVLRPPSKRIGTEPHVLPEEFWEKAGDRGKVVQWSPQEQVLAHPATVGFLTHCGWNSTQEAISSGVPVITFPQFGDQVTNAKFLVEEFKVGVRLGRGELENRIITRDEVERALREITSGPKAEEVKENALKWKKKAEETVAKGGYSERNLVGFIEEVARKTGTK", "assay": "enzyme kinetics of purified N-terminal 6xHis GtCGT V93Q/Y193F, FK to dcII, UDP-Glo Glycosyltransferase Assay", "type": "biochemical", "experimental": "Each plasmid was constructed by PCR amplification of pCDF-GtCGT and pCDF-GtCGTmut using GtCGT_N_His_IV_F and GtCGT_N_His_IV_R primers, followed by blunt-end ligation through DpnI treatment and T4 PNK and T4 ligase treatment. Each of the two plasmids thus constructed was transformed into the E. coli BL21(DE3) strain, followed by seed culture in a test tube containing 10 mL of LB and then culture at 37° C. until OD600 reached 0.8 in a flask containing 500 mL of LB. After treatment with 1 mM IPTG for enzyme expression, additional culture was carried out at 20° C. for 16 hours, and cells were collected by centrifugation and then resuspended in 30 mL of lysis buffer (50 mM NaH2PO4, 0.3 M NaCl, 10 mM imidazole, pH 7.5). The cells were disrupted by ultrasonication and then centrifuged at 10,000 rpm and 4° C. for 40 minutes to obtain a supernatant containing water-soluble proteins. […]\nHere, a UDP-Glo Glycosyltransferase Assay Kit (Promega) was used to determine the extent of reaction. Since this kit enables measurement of free UDP generated as a reaction byproduct by luminescence, 200 μL of an enzyme reaction solution containing 0.1 μM enzyme and various concentrations of FK (50 mM HEPES, 0.1 mM UDP-glucose, 5 mM MgCl2, pH 7.5) was allowed to react at 25° C. for 1 hour, 25 μL thereof was taken out, and the amount of emitted light was measured using the kit."}
{"smiles": "Cc1c(C(=O)O)c(O)cc2c1C(=O)c1c(O)cc(O)cc1C2=O", "note": "[FK, flavokermesic acid]", "values": [{"measurement": "KM value decreased compared to GtCGT", "setting": "decrease vs wild-type GtCGT", "value": 19.5, "unit": "%"}, {"measurement": "Vmax value increased compared to GtCGT", "setting": "increase vs wild-type GtCGT", "value": 18.2, "unit": "%"}]}
